Counter-ions that a name gives are not always drawn. Like-named read-outs stand apart in the source and are kept apart here.
Experiments:
[1] = system: Toxoplasma gondii RH-2F tachyzoites; assay: microbe, parasite or virus in culture; details: 72 h
APPL (γ-secretase) = target: APPL (γ-secretase); design: method as in S-inhibitor catalog; details: vendor brief description; ref S-inhibitor catalog; cited from earlier work
Notch (γ-secretase) = target: Notch (γ-secretase); design: method as in S-inhibitor catalog; details: vendor brief description; ref S-inhibitor catalog; cited from earlier work
γ-secretase [2] = target: γ-secretase; design: method as in S-inhibitor catalog; details: vendor brief description; ref S-inhibitor catalog; read-out: IC50, membrane-based γ-secretase; cited from earlier work
γ-secretase [3] = target: γ-secretase; design: method as in S-inhibitor catalog; details: vendor brief description; ref S-inhibitor catalog; read-out: IC50, cell-based γ-secretase; cited from earlier work
Flt3 = system: Flt3; design: method as in S-inhibitor catalog; details: vendor brief description; ref S-inhibitor catalog; cited from earlier work
Ret = system: Ret; design: method as in S-inhibitor catalog; details: vendor brief description; ref S-inhibitor catalog; cited from earlier work
JAK2 = system: JAK2; design: method as in S-inhibitor catalog; details: vendor brief description; ref S-inhibitor catalog; cited from earlier work
BRAFV600E = system: BRAFV600E; design: method as in S-inhibitor catalog; details: vendor brief description; ref S-inhibitor catalog; cited from earlier work
wild-type CRAF = system: wild-type CRAF; design: method as in S-inhibitor catalog; details: vendor brief description; ref S-inhibitor catalog; cited from earlier work
Aurora B = system: Aurora B; design: method as in S-inhibitor catalog; details: vendor brief description; ref S-inhibitor catalog; cited from earlier work
Aurora A = system: Aurora A; design: method as in S-inhibitor catalog; details: vendor brief description; ref S-inhibitor catalog; cited from earlier work
in vitro = details: human, Host viability (%) mean
human c-Met = target: human c-Met; design: method as in S-inhibitor catalog; details: vendor brief description; ref S-inhibitor catalog; cited from earlier work
mouse c-Met = target: mouse c-Met; design: method as in S-inhibitor catalog; details: vendor brief description; ref S-inhibitor catalog; cited from earlier work
PDGFRα = system: PDGFRα; design: method as in S-inhibitor catalog; details: in PDGFRα over-expressed CHO cells; vendor brief description; ref S-inhibitor catalog; cited from earlier work
Chk1 = system: Chk1; design: method as in S-inhibitor catalog; details: vendor brief description; ref S-inhibitor catalog; cited from earlier work
[4] = system: Pol I-driven transcription of rRNA; design: method as in S-inhibitor catalog; details: in HCT-116 cells; vendor brief description; ref S-inhibitor catalog; cited from earlier work
[5] = target: glycogen phosphorylase (GP); design: method as in S-inhibitor catalog; details: vendor brief description; ref S-inhibitor catalog; cited from earlier work
[6] = system: Toxoplasma gondii RH-2F tachyzoites; details: preliminary screen of compound library; mean
Mps1 = system: Mps1; design: method as in S-inhibitor catalog; details: vendor brief description; ref S-inhibitor catalog; cited from earlier work
cancer cell lines = system: cancer cell lines; design: method as in S-inhibitor catalog; details: vendor brief description; ref S-inhibitor catalog; cited from earlier work
[7] = target: opioid receptor-like1 (ORL1) receptor; design: method as in S-inhibitor catalog; details: vendor brief description; ref S-inhibitor catalog; cited from earlier work
ErbB1 = system: ErbB1; design: method as in S-inhibitor catalog; details: vendor brief description; ref S-inhibitor catalog; cited from earlier work
ErbB2 = system: ErbB2; design: method as in S-inhibitor catalog; details: vendor brief description; ref S-inhibitor catalog; cited from earlier work
ErbB4 = system: ErbB4; design: method as in S-inhibitor catalog; details: vendor brief description; ref S-inhibitor catalog; cited from earlier work
p38α = details: read-out: IC50, p38α; vendor brief description; ref S-inhibitor catalog; cited from earlier work
IGF-1R = system: IGF-1R; design: method as in S-inhibitor catalog; details: vendor brief description; ref S-inhibitor catalog; cited from earlier work
ALK = details: read-out: IC50, ALK; vendor brief description; ref S-inhibitor catalog; cited from earlier work
CDK4 = system: CDK4; design: method as in S-inhibitor catalog; details: vendor brief description; ref S-inhibitor catalog; cited from earlier work
CDK1 = system: CDK1; design: method as in S-inhibitor catalog; details: vendor brief description; ref S-inhibitor catalog; cited from earlier work
CDK6 = system: CDK6; design: method as in S-inhibitor catalog; details: vendor brief description; ref S-inhibitor catalog; cited from earlier work
CDK7 = system: CDK7; design: method as in S-inhibitor catalog; details: vendor brief description; ref S-inhibitor catalog; cited from earlier work
PI3Kγ = system: PI3Kγ; design: method as in S-inhibitor catalog; details: vendor brief description; ref S-inhibitor catalog; cited from earlier work
Cdc7 = system: Cdc7; design: method as in S-inhibitor catalog; details: vendor brief description; ref S-inhibitor catalog; cited from earlier work
CDK9 = system: CDK9; design: method as in S-inhibitor catalog; details: vendor brief description; ref S-inhibitor catalog; cited from earlier work
[8] = system: Akt phosphorylation on T308; design: method as in S-inhibitor catalog; details: vendor brief description; ref S-inhibitor catalog; cited from earlier work
[9] = system: Akt phosphorylation on S473; design: method as in S-inhibitor catalog; details: vendor brief description; ref S-inhibitor catalog; cited from earlier work
[10] = target: farnesoid X receptor (FXR); design: method as in S-inhibitor catalog; details: vendor brief description; ref S-inhibitor catalog; read-out: EC50, FXR agonist; cited from earlier work
GSK-3ɑ = details: read-out: IC50, GSK-3ɑ; vendor brief description; ref S-inhibitor catalog; cited from earlier work
GSK-3β = details: read-out: IC50, GSK-3β; vendor brief description; ref S-inhibitor catalog; cited from earlier work
mTOR = system: mTOR; design: method as in S-inhibitor catalog; details: vendor brief description; ref S-inhibitor catalog; cited from earlier work
PI3Kα = system: PI3Kα; design: method as in S-inhibitor catalog; details: vendor brief description; ref S-inhibitor catalog; cited from earlier work
PI3Kβ = system: PI3Kβ; design: method as in S-inhibitor catalog; details: vendor brief description; ref S-inhibitor catalog; cited from earlier work
AMPK = details: read-out: EC50, AMPK activation; vendor brief description; ref S-inhibitor catalog; cited from earlier work
fatty acid synthesis = system: fatty acid synthesis; design: method as in S-inhibitor catalog; details: vendor brief description; ref S-inhibitor catalog; cited from earlier work
[11] = target: TGF-β receptor type II (TβRII); design: method as in S-inhibitor catalog; details: vendor brief description; ref S-inhibitor catalog; cited from earlier work
[12] = read-out: Parasite inhibition (%) mean, preliminary screen of compound library, mean
[13] = read-out: Parasite inhibition (%) mean

Compound: C[C@H](NC(=O)Cc1cc(F)cc(F)c1)C(=O)N[C@@H]1C(=O)N(C)c2ccccc2-c2ccccc21 [YO-01027]
- inhibition of growth at 5 µM [1, 12]: 1.4%
- IC50 (APPL (γ-secretase)): 2.6 nM
- IC50 (Notch (γ-secretase)): 2.9 nM

Compound: C[C@H](NC(=O)[C@@H](O)c1cc(F)cc(F)c1)C(=O)N[C@@H]1C(=O)N(C)c2ccccc2-c2ccccc21 [LY411575]
- IC50 (γ-secretase [2]): 0.078 nM
- IC50 (γ-secretase [3]): 0.082 nM
- inhibition of growth at 5 µM [1, 12]: 0.9%

Compound: Cc1cnc(Nc2ccc(N3CCN(C)CC3)cc2)nc1Nc1cccc(S(=O)(=O)NC(C)(C)C)c1 [TG101209]
- IC50 (Flt3): 25 nM
- IC50 (Ret): 17 nM
- inhibition of growth at 5 µM [1, 12]: -21.3%
- IC50 (JAK2): 6 nM

Compound: Cc1ccc(NC(=O)c2cccc(C(C)(C)C#N)c2)cc1Nc1ccc2ncn(C)c(=O)c2c1 [AZ628]
- IC50 (BRAFV600E): 34 nM
- IC50 (wild-type CRAF): 29 nM
- inhibition of growth at 5 µM [1, 12]: 0.6%

Compound: CC(=O)NCC(=O)N1[C@H]2CC[C@H]1c1cc(Nc3ncc(C(F)(F)F)c(NC4CCC4)n3)ccc12 [PF-03814735]
- IC50 (Aurora B): 5 nM
- IC50 (Aurora A): 0.8 nM
- inhibition of growth at 5 µM [1, 12]: 80.4%
- viability at 72 h (in vitro): 60.3%

Compound: COc1ccc2c(Oc3ccc(NC(=O)c4c(C)n(CC(C)(C)O)n(-c5ccccc5)c4=O)nc3)ccnc2c1 [AMG458]
- Ki (human c-Met): 1.2 nM
- Ki (mouse c-Met): 2 nM
- inhibition of growth at 5 µM [1, 12]: 86.6%
- viability at 72 h (in vitro): 75.9%

Compound: CC1(COc2ccc3c(c2)ncn3-c2ccc3cccc(N4CCC(N)CC4)c3n2)COC1 [Crenolanib (CP-868596)]
- inhibition of growth at 5 µM [1, 12]: 0.2%

Compound: O=c1[nH]c2ccc(Cl)cc2c(N[C@@H]2CN3CCC2CC3)c1-c1nc2ccccc2[nH]1 [CHIR-124]
- IC50 (Chk1): 0.3 nM
- inhibition of growth at 5 µM [1, 12]: 0%

Compound: Cc1cnc(CNC(=O)c2c(=O)c3ccc(N4CCCN(C)CC4)nc3n3c2sc2ccccc23)cn1 [CX-5461]
- IC50 [4]: 142 nM
- inhibition of growth at 5 µM [1, 12]: 2.5%

Compound: CN(C)C(=O)[C@H](O)[C@H](Cc1ccccc1)NC(=O)c1cc2cc(Cl)ccc2[nH]1 [CP-91149]
- IC50 [5]: 130 nM
- inhibition of growth at 5 µM [1, 12]: 28.6%

Compound: AZ 3146
- Parasite inhibition (%) mean [6]: 3.4%
- IC50 (Mps1): ~35 nM

Compound: O=C(Cc1ccc(-c2ccc(OCCN3CCOCC3)cc2)cn1)NCc1ccccc1 [KX2-391]
- GI50 (cancer cell lines): 9 to 60 nM
- inhibition of growth at 5 µM [1, 12]: 7.6%

Compound: CCc1ccc(OCc2ccccc2C(=O)Nc2ccc3nc(C)cc(N)c3c2)cc1 [JTC-801]
- IC50 [7]: 94 nM
- inhibition of growth at 5 µM [1, 12]: 98.8%
- viability at 72 h (in vitro): 16.4%

Compound: COc1cc2ncnc(Nc3ccc(F)c(Cl)c3)c2cc1NC(=O)/C=C/CN1CCCCC1 [Dacomitinib (PF299804,PF-00299804)]
- inhibition of growth at 5 µM [1, 12]: 0.4%

Compound: CNC(=O)c1ccc(C)c(-n2c(C)cc(OCc3ccc(F)cc3F)c(Br)c2=O)c1 [PH-797804]
- inhibition of growth at 5 µM [1, 12]: 1.5%
- IC50 (p38α): 26 nM

Compound: CNC(=O)c1c(F)cccc1Nc1nc(Nc2cc3c(cc2OC)CCN3C(=O)CN(C)C)nc2[nH]ccc12 [GSK1838705A]
- IC50 (IGF-1R): 2 nM
- IC50 (ALK): 0.5 nM
- inhibition of growth at 5 µM [1, 12]: 70.9%
- viability at 72 h (in vitro): 72.8%

Compound: CN1CC[C@H](c2c(O)cc(O)c3c(=O)cc(-c4ccccc4Cl)oc23)[C@H](O)C1 [Flavopiridol (Alvocidib) HCl]
- inhibition of growth at 5 µM [1, 12]: 6.4%
- IC50 (CDK7): 300 nM

Compound: O=C1NC(=O)C(=Cc2ccc(-c3ccc(F)cc3)o2)S1 (stereo in doubt) [CAY10505]
- IC50 (PI3Kγ): 30 nM
- inhibition of growth at 5 µM [1, 12]: -7.4%

Compound: O=C1NCCc2[nH]c(-c3ccncc3)cc21 [PHA-767491]
- inhibition of growth at 5 µM [1, 13]: 2.1%

Compound: COc1ccc(-c2cc3c(C)nc(N)nc3n([C@H]3CC[C@H](OCCO)CC3)c2=O)cn1 [PF-04691502]
- IC50 [8]: 7.5 nM
- IC50 [9]: 3.8 nM
- inhibition of growth at 5 µM [1, 12]: 11.5%

Compound: CC(C)OC(=O)C1=CN(C(=O)c2ccc(F)c(F)c2)CC(C)(C)c2c1[nH]c1ccccc21 [WAY-362450]
- EC50 [10]: 4 nM
- inhibition of growth at 5 µM [1, 12]: -2.1%

Compound: Nc1nc(NCCNc2ncc(-n3ccnc3)c(-c3ccc(Cl)cc3Cl)n2)ccc1[N+](=O)[O-] [CHIR-98014]
- IC50 (GSK-3ɑ): 0.65 nM
- IC50 (GSK-3β): 0.58 nM
- inhibition of growth at 5 µM [1, 13]: 52.4%

Compound: CCn1nnc2c(N3CCOCC3)nc(-c3ccc(NC(=O)Nc4ccc(C(=O)N5CCN(C)CC5)cc4)cc3)nc21 [PKI-402]
- IC50 (mTOR): 3 nM
- IC50 (PI3Kα): 2 nM
- inhibition of growth at 5 µM [1, 12]: 36.9%

Compound: N#Cc1c(O)c2c(-c3ccc(-c4ccccc4O)cc3)csc2[nH]c1=O [A-769662]
- inhibition of growth at 5 µM [1, 12]: -13.9%
- IC50 (fatty acid synthesis): 3200 nM

Compound: c1ccc(-c2nn3c(c2-c2ccnc4cc(OCCN5CCOCC5)ccc24)CCC3)nc1 [LY2109761]
- Ki [11]: 300 nM
- inhibition of growth at 5 µM [1, 13]: 46.7%
